In BindingDB's records for doi:10.1016/j.bioorg.2016.05.004 (Universidade De Evora, 2016):

Key:
[1] = molecular target: Acetylcholinesterase (Electrophorus electricus, UniProt O42275); assay: EeAChE Inhibition Assay
Method: The inhibition assay of these compounds for AChE (electrophorus electricus) and BuChE (equine serum) were determined by the spectroscopic method described by Ellman et al. which was adapted for 96-well microplates. 25 The standard compound used was galantamine. A 75 μL of different concentrations of the sample was dissolved in buffer with a maximum of 10% DMSO, 25 μL of ATCI (15 mM), and 125 μL of DTNB 3 mM were added to the wells followed by 25 μL of 0.3 U/mL AChE. The velocity was measured by the increase in the absorbance at 405 nm during 1 min time interval at 25 C in a BIO-TEK ELX800G microplate reader (using Gen5 v.1.05 software).

[2] = molecular target: Carboxylic ester hydrolase (Equus caballus, UniProt Q9N1N9); assay: EqBuChE Inhibition Assay
Chain of Carboxylic ester hydrolase (Q9N1N9 whole entry): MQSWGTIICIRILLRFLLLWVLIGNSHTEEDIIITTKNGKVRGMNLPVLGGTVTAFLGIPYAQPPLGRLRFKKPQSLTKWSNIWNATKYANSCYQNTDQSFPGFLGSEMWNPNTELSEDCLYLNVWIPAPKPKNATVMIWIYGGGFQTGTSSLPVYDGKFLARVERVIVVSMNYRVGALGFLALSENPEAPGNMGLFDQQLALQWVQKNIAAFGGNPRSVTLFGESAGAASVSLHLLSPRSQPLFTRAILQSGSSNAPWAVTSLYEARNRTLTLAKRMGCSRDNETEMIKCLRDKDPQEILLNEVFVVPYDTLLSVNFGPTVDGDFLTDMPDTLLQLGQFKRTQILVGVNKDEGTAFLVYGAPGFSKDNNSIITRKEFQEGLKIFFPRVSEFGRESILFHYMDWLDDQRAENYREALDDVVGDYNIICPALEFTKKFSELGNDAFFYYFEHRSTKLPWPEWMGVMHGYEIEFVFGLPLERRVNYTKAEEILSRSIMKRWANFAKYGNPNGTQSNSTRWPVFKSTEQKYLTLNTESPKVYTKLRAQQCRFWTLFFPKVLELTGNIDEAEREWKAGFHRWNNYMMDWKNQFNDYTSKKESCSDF
Method: The in vitro BuChE assay was performed similarly to the method described above. A standard enzyme activity curve was drawn for each enzyme using seven different concentrations ranging from 0.1 U/mL to 1 U/mL and enzyme activity was calculated (one unit of enzyme will hydrolyze 1.0 μmol of acetylthiocholine to thiocholine and acetate per minute). Inhibitory activity was calculated from 100 subtracted by the percentage of enzyme activity.

Chain of Acetylcholinesterase (O42275 whole entry): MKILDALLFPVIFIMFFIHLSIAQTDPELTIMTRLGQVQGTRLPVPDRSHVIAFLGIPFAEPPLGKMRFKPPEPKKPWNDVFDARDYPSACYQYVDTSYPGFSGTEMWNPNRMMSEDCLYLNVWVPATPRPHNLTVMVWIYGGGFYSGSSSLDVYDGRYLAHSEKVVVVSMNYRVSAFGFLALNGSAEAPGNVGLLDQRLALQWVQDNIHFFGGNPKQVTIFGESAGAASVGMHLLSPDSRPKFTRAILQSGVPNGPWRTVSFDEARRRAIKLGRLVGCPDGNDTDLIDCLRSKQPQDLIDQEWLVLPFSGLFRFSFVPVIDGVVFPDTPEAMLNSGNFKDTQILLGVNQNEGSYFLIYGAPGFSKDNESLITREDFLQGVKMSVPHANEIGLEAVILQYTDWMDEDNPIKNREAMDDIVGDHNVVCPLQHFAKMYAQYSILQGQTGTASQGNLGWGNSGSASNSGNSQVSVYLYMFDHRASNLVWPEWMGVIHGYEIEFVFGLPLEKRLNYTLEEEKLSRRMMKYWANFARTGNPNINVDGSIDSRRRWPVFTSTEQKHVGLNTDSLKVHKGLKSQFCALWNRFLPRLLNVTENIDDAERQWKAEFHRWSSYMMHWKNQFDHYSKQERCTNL

SMILES	IC50 [1]	IC50 [2]
COC1CNC(=O)c2ccccc21 (stereo unspecified) [Isoquinolin-1(2H)-ones, 1f]	89.5 µM	154 µM
COc1ccc2c3c1O[C@H]1C[C@@H](O)C=C[C@@]31CCN(C)C2 [galantamine]		61.9 µM
Cc1ccc2c(c1)C(=O)NCCC2O (stereo unspecified) [Isoquinolin-1(2H)-ones, 2b]	536 µM	108 µM
O=C1NCC(O)c2cc(Cl)ccc21 (stereo unspecified) [Isoquinolin-1(2H)-ones, 1d]	> 1500 µM	226 µM
Cc1ccc2c(c1)C(=O)NCC2O (stereo unspecified) [Isoquinolin-1(2H)-ones, 1b]	> 1500 µM	352 µM
Cc1ccc2c(n1)C(O)CCNC2=O (stereo unspecified) [Isoquinolin-1(2H)-ones, 4b]	> 1500 µM	> 1500 µM
COc1ccc2c(c1)C(=O)NCC2O (stereo unspecified) [Isoquinolin-1(2H)-ones, 1e]	311 µM	> 1500 µM
Cc1ccc2c(c1)C(O)CNC2=O (stereo unspecified) [Isoquinolin-1(2H)-ones, 1c]	> 1500 µM	> 1500 µM
O=C1NCCC(O)c2ncccc21 (stereo unspecified) [Isoquinolin-1(2H)-ones, 4a]	550 µM	> 1500 µM
O=C1NCC(O)c2ccccc21 (stereo unspecified) [Isoquinolin-1(2H)-ones, 1a]	136 µM	807 µM
O=C1NCC(O)c2ccsc21 (stereo unspecified) [Isoquinolin-1(2H)-ones, 5]	1370 µM	> 1500 µM
